The values that follow come from patent US20150118311A1, “Highly Penetrative Nanocarriers for Treatment of CNS Disease” (priority 2012, published 2015).

Where two headings read alike, the source gives them in different places.

One assay concerns GS5 cells. As to the kind of experiment: GS5 cell proliferation/viability (MTT, AlamarBlue). Format: cell-based, human. On the technique in general: The colour change of resazurin is a common sign of viable cells or microbes.
The subject of another assay is GS5-derived tumors. The experiment in a line: Survival of nude rats with intracranial GS5 (BCSC) xenografts after CED. Format: in vivo. To be noted: BCSC xenograft tumors in the rat, FIG. 1C.
Another assay deals with CD133+ cell population. The experiment in a line: Flow cytometry of CD133+ cell population in BCSC culture. The assay is classed as cell-based, human. To be noted: 100 nM drug, 3 days after plating, DI treated culture. (Flow cytometry measures light scatter and fluorescence of single cells or particles in a stream.)
The subject of a further assay is BCSC sphere formation. As to the kind of experiment: BCSC sphere formation.
For a further assay, the system named is BCSCs. The assay is classed as cell-based, human.
In a further assay the test system is BCSC line PS11. As to the kind of experiment: Flow cytometry of CD133+ population in PS11. To be noted: 1 μM.
The test system of the next assay is U87MG. As to the kind of experiment: cells. As to conditions: Homo sapiens, U-87 MG, read-out: IC50, growth of U87MG in vitro.
For the next assay, the system named is U87MG-derived xenografts. The experiment in a line: Survival of nude rats with intracranial U87MG xenografts after CED. As to conditions: U87MG xenograft. Format: in vivo.
[1] abbreviates: Homo sapiens, 72 h, GS5 cells, three days after treatment, read-out: IC50 of candidate drugs on GS5 cells.
Where [2] appears, read: read-out: IC50 of candidate drugs on GS5 cells.
The mark [3] stands for this setting: Homo sapiens, 72 h, read-out: IC50 of candidate drugs on GS5 cells.
[4] abbreviates: GS5 cells, three days after treatment, read-out: IC50 of candidate drugs on GS5 cells.

`Nc1ccn([C@@H]2O[C@H](CO)[C@@H](O)[C@@H]2O)c(=O)n1` [Cytarabine]: the IC50 with GS5 cells (setting [1]) is 0.8 µM.

Regarding `CC1=C(C(=O)O)N2C(=O)[C@@H](NC(=O)[C@H](N)C3=CCC=CC3)[C@H]2SC1` [Cephradine], in the assay with GS5 cells (setting [1]), the IC50 amounted to 38.5 µM.

As for `CCC(=O)[O-].CCC(=O)[O-].[Ca+2]` [Calcium propionate], the IC50 in the assay with GS5 cells (setting [2]) came out at 29.5 µM.

Regarding `CCN1/C(=C/C=C/C=C/c2sc3ccccc3[n+]2CC)Sc2ccccc21` [Dithiazanine iodide], the IC50 was 0.3 µM with GS5 cells (setting [1]) and 0.079 µM in the assay on GS5 cells (Homo sapiens, GS5, running text, read-out: IC50, inhibition of GS5 proliferation). The molecule also registered a median survival with GS5-derived tumors of 177 days. Also, the “decrease of CD133+ cell population” value with CD133+ cell population is reported as 57%.

On to `COc1ccc2c(c1)[nH]c1c(C)nccc12` [Harmine], for which the IC50 with GS5 cells (setting [3]) is 19.3 µM.

As to `O=S(=O)([O-])[O-].[Fe+2]` [Iron(II) sulfate heptahydrate], in the assay with GS5 cells (setting [2]), the IC50 amounted to 32.1 µM.

As for `CCCCCCCCCCCCCCCCOP(=O)([O-])OCC[N+](C)(C)C` [Miltefosine], in the assay with GS5 cells (setting [1]), the IC50 came out at 27.8 µM.

Consider Acriflavine hydrochloride, for which the IC50 with GS5 cells (setting [4]) was determined as 3 µM.

In the case of `Sc1ncnc2nc[nH]c12` [6-Mercaptopurine monohydrate], the IC50 in the assay on GS5 cells (setting [3]) stood at 7.8 µM.

As to `S=C(S)N1CCCC1` [Ammonium pyrrolidinedithiocarbamate], the IC50 in the assay on GS5 cells (setting [4]) was found to be 3.3 µM.

With `C[C@H]1C[C@H]2[C@@H]3CCC4=CC(=O)C=C[C@]4(C)[C@@]3(F)[C@@H](O)C[C@]2(C)[C@@]1(O)C(=O)CO` [Betamethasone], the IC50 in the assay with GS5 cells (setting [1]) is 25.9 µM.

In the case of `CCN(CC)CCCC(C)Nc1c2ccc(Cl)cc2nc2ccc(OC)cc12` (stereo not shown) [Quinacrine], the IC50 in the assay on GS5 cells (setting [1]) stood at 2.7 µM.

Turning to `CC(C)C[C@H]1C(=O)N2CCC[C@H]2[C@]2(O)O[C@](NC(=O)[C@@H]3C=C4c5cccc6[nH]c(Br)c(c56)C[C@H]4N(C)C3)(C(C)C)C(=O)N12` [Bromocriptine], the IC50 in the assay on GS5 cells (setting [3]) was determined as 9.1 µM.

Consider `C[C@H]1O[C@@H](O[C@H]2[C@@H](O)C[C@H](O[C@H]3[C@@H](O)C[C@H](O[C@H]4CC[C@@]5(C)[C@H](CC[C@@H]6[C@@H]5C[C@@H](O)[C@]5(C)[C@@H](C7=CC(=O)OC7)CC[C@]65O)C4)O[C@@H]3C)O[C@@H]2C)C[C@H](O)[C@@H]1O` [Digoxin], for which the IC50 with GS5 cells (setting [3]) was 0.3 µM. Further, the “effect on BCSC sphere formation” value in the assay on BCSC sphere formation (1 μM) is “inhibited BCSC sphere formation”. Also, the “effect on BCSC sphere formation” value with BCSC sphere formation (5 μM) was “inhibited BCSC sphere formation”. Besides, in the assay with BCSCs, the “effect on BCSC proliferation” value is given as “inhibited BCSC proliferation” and the “performance on in vitro assays against BCSCs” value is “performed well”. Moreover, the “effect on CD133+ population” value with BCSC line PS11 is “decreased the CD133+ population”.

Consider `Cc1ccc2ccc3ccc(C)nc3c2n1` [Neocuproine], for which, in the assay on GS5 cells (setting [1]), the IC50 turned out to be 0.2 µM.

With `N=C(N)NCC(=O)O` [Glycocyamine], the IC50 in the assay with GS5 cells (setting [1]) was 33.9 µM.

Regarding `Nc1nc2nc[nH]c2c(=S)[nH]1` [Thioguanine], the IC50 in the assay with GS5 cells (setting [1]) turned out to be 4.6 µM.

In the case of `C[C@@H]1O[C@@H](O[C@@H]2C=C3CC[C@@H]4[C@H](CC[C@]5(C)[C@@H](c6ccc(=O)oc6)CC[C@]45O)[C@@]3(C)CC2)[C@H](O)[C@H](O)[C@H]1O` [Proscillaridin A], the IC50 with GS5 cells (setting [2]) came to 0.1 µM.

`COc1ccc(C[C@H]2NC[C@H](O)[C@H]2OC(C)=O)cc1` [Anisomycin]: in the assay with GS5 cells (setting [2]), the IC50 was determined as 0.3 µM. Also, in the assay on BCSCs, the “performance on in vitro assays against BCSCs” value is reported as “performed well”.

In the case of `CC1=C2N=C(C=C3N=C(C(C)=C4[N-]C(C(CC(N)=O)C4(C)CCC(=O)NCC(C)OP(=O)([O-])OC4C(CO)OC(n5cnc6cc(C)c(C)cc65)C4O)C4(C)N=C1C(CCC(N)=O)C4(C)CC(N)=O)C(CCC(N)=O)C3(C)C)C(CCC(N)=O)C2(C)CC(N)=O.Cl.[Co+3].[OH-]` (stereo not shown) [Hydroxocobalamin hydrochloride], in the assay with GS5 cells (setting [2]), the IC50 was 32.1 µM.

For `CCN(CC)CCNc1ccc(CO)c2sc3ccccc3c(=O)c12` [Hycanthone], the IC50 with GS5 cells (setting [1]) came out at 5.6 µM.

For `CN(C)CCC(c1ccc(Cl)cc1)c1ccccn1` (stereo not shown) [Chlorpheniramine], the IC50 in the assay with GS5 cells (setting [1]) was 40.4 µM.

For `CC(=O)O[C@H]1C(=O)[C@@]2(C)[C@H]([C@H](OC(=O)c3ccccc3)[C@]3(O)C[C@H](OC(=O)[C@H](O)[C@@H](NC(=O)c4ccccc4)c4ccccc4)C(C)=C1C3(C)C)[C@]1(OC(C)=O)CO[C@@H]1C[C@@H]2O` [paclitaxel], the IC50 with U87MG came out at 0.169 µM. Further, in the assay on U87MG-derived xenografts (CED), the “survival benefit compared to no treatment” value was “failed to show a survival benefit”. The molecule further came in with a median survival in the assay with U87MG-derived xenografts (single CED infusion 7 days after inoculation) of 30 days.

As for `Nc1nc(Cl)nc2c1ncn2[C@H]1C[C@H](O)[C@@H](CO)O1` [Cladribine], the IC50 with GS5 cells (setting [1]) turned out to be 3.4 µM.

Take `CC[C@H]1CN2CCc3cc(OC)c(OC)cc3[C@@H]2C[C@@H]1C[C@H]1NCCc2cc(OC)c(OC)cc21` [Emetine]: the IC50 with GS5 cells (setting [1]) is 0.3 µM.

With `CN1CCC(Nc2ncc3ncnc(Nc4ccc(F)c(Cl)c4)c3n2)CC1` [Falnidamol], the IC50 in the assay on GS5 cells (setting [3]) was found to be 22 µM.
